Bounds are passed on as bounds.

Data set [1] in a line: Solubility of corticosteroids in neat solvents, measured gravimetrically. Format: physicochemical. As to conditions: for Solubility in PG Monocaprylate: neat PG monocaprylate; for Solubility in PG Monocaprylate / Solubility in PG Monolaurate / Solubility in Isopropyl Myristate: room temperature, examined at about 24 hours; for Solubility in PG Monolaurate: neat PG monolaurate; for Solubility in Isopropyl Myristate: neat isopropyl myristate; for times more soluble in PG monocaprylate than in isopropyl myristate / times more soluble in PG monolaurate than in isopropyl myristate: ratio of Table 1 solubilities. The protocol: (§1) The solubilities of various corticosteroids in propylene glycol (PG) monocaprylate, PG monolaurate, or isopropyl myristate were measured gravimetrically. Corticosteroid, PG monocaprylate, PG monolaurate, and/or isopropyl myristate were placed in glass vials and weighed on an analytical balance to four decimals places. Test solutions were stirred and shaken at room temperature for up to 30 minutes. Test solutions were examined at about 24 hours for clarity or non-dissolved material.

The nature of data set [2]: Solubility of corticosteroid in mixtures of solvent components (procedure of Example 1). The class given is physicochemical. The protocol:
as §1

With `CCC(=O)OCC(=O)[C@@]1(OC(=O)CC)[C@@H](C)C[C@H]2[C@@H]3CCC4=CC(=O)C=C[C@]4(C)[C@@]3(F)[C@@H](O)C[C@@]21C` [Betamethasone Dipropionate], in data set [1], the “Solubility in PG Monocaprylate” value came out at 4.0 % w/w, the “Solubility in PG Monolaurate” value worked out at 2.30 % w/w, the “Solubility in Isopropyl Myristate” value is 0.15 % w/w and the “times more soluble in PG monocaprylate than in isopropyl myristate” value stood at 27 times. The “times more soluble in PG monolaurate than in isopropyl myristate” value in data set [1] stood at 15.3 times.

Take `CCC(=O)O[C@]1(C(=O)CCl)[C@@H](C)C[C@H]2[C@@H]3CCC4=CC(=O)C=C[C@]4(C)[C@@]3(F)[C@@H](O)C[C@@]21C` [Clobetasol Propionate]: in data set [1], the “Solubility in PG Monocaprylate” value came to 4.0 % w/w, the “Solubility in PG Monolaurate” value is 1.80 % w/w, the “Solubility in Isopropyl Myristate” value turned out to be 0.25 % w/w and the “times more soluble in PG monocaprylate than in isopropyl myristate” value was determined as 16 times. Moreover, the “times more soluble in PG monolaurate than in isopropyl myristate” value in data set [1] is 7.2 times.

Turning to `CC1(C)O[C@@H]2C[C@H]3[C@@H]4CCC5=CC(=O)C=C[C@]5(C)[C@H]4[C@@H](O)C[C@]3(C)[C@]2(C(=O)CO)O1` [Desonide], in data set [1], the “Solubility in PG Monocaprylate” value is 1.15 % w/w and the “Solubility in PG Monolaurate” value is 0.40 % w/w.

Turning to `CCC(=O)O[C@]1(C(=O)SCF)[C@H](C)C[C@H]2[C@@H]3C[C@H](F)C4=CC(=O)C=C[C@]4(C)[C@@]3(F)[C@@H](O)C[C@@]21C` [Fluticasone Propionate], in data set [1], the “Solubility in PG Monocaprylate” value worked out at 0.3 % w/w, the “Solubility in Isopropyl Myristate” value is given as less than 0.03 % w/w and the “times more soluble in PG monocaprylate than in isopropyl myristate” value was 10 times.

For `CCCC(=O)O[C@]1(C(=O)CO)CC[C@H]2[C@@H]3CCC4=CC(=O)CC[C@]4(C)[C@H]3[C@@H](O)C[C@@]21C` [Hydrocortisone Butyrate], in data set [1], the “Solubility in PG Monocaprylate” value was 2.0 % w/w, the “Solubility in PG Monolaurate” value is on record as 1.35 % w/w, the “Solubility in Isopropyl Myristate” value was found to be 0.10 % w/w and the “times more soluble in PG monocaprylate than in isopropyl myristate” value came out at 20 times. For the same molecule, the “times more soluble in PG monolaurate than in isopropyl myristate” value in data set [1] stood at 13.5 times.

Regarding `C[C@@H]1C[C@H]2[C@@H]3CCC4=CC(=O)C=C[C@]4(C)[C@@]3(Cl)[C@@H](O)C[C@]2(C)[C@@]1(OC(=O)c1ccco1)C(=O)CCl` [Mometasone Fuorate], the “Solubility in PG Monocaprylate” value in data set [1] was 0.7 % w/w.

`CC1(C)O[C@@H]2C[C@H]3[C@@H]4CCC5=CC(=O)C=C[C@]5(C)[C@@]4(F)[C@@H](O)C[C@]3(C)[C@]2(C(=O)CO)O1` [Triamcinolone Acetonide]: the “Solubility in PG Monocaprylate” value in data set [1] is reported as 0.65 % w/w. Further, the “Solubility in PG Monolaurate” value in data set [1] is listed as 0.30 % w/w; in data set [1] (listed as triamcinolone acetonide), 0.3 % w/w. Moreover, in data set [1], the “Solubility in Isopropyl Myristate” value was less than 0.04 % w/w. In addition, the “times more soluble in PG monocaprylate than in isopropyl myristate” value in data set [1] is on record as “at least 16 times”. Moreover, the “times more soluble in PG monolaurate than in isopropyl myristate” value in data set [1] is on record as “at least 7.5 times”. Moreover, the “increase of solubility on addition of ethoxydiglycol to PG alone” value in data set [2] (12:12:0 ethoxydiglycol:PG:PG monocaprylate versus PG alone, Example 5) was 1.7 fold. Also, the Solubility in data set [2] (Ethoxydiglycol:PG:PG Monocaprylate 12:0:12, Table 7) was 1.53 % w/w; in data set [2] (Ethoxydiglycol:PG:PG Monocaprylate 12:3:9, Table 7), 2.00 % w/w; in data set [2] (Ethoxydiglycol:PG:PG Monocaprylate 12:6:6, Table 7) it was 2.30 % w/w; in data set [2] (Ethoxydiglycol:PG:PG Monocaprylate 12:9:3, Table 7), 2.45 % w/w; in data set [2] (Ethoxydiglycol:PG:PG Monocaprylate 12:12:0, Table 7) it was 2.45 % w/w; in data set [2] (PG:PG Monocaprylate 0:100 (PG monocaprylate alone), Table 6), 0.60 % w/w. Moreover, the Solubility is 1.25 % w/w in data set [2] (PG:PG Monocaprylate 25:75, Table 6); 1.60 % w/w in data set [2] (PG:PG Monocaprylate 50:50, Table 6); 1.50 % w/w in data set [2] (PG:PG Monocaprylate 75:25, Table 6); 1.15 % w/w in data set [2] (PG:PG Monocaprylate 90:10, Table 6); 0.90 % w/w in data set [2] (PG:PG Monocaprylate 100:0 (PG alone), Table 6). The “solubility in ethoxydiglycol:PG:PG monocaprylate mixture compared with PG:PG monocaprylate mixture” value in data set [2] (FIG. 4) is “more soluble”. For the same molecule, the “solubility in PG:PG monocaprylate mixtures compared with expected solubility (dashed line)” value in data set [2] (FIG. 4, each tested mixture containing both PG and PG monocaprylate) is reported as “more soluble in the mixture than expected”.

Source of the values: US10111956B2, “Corticosteroid compositions” (TOLMAR, Inc., priority 2013, dated 2018).
